{"source": "patent US12292444B2", "about": "“Methods and compositions related to modified green fluorescent protein (GFP) with an embedded foreign peptide” (University of South Florida, priority 2020, dated 2025)", "origin": "cited, not measured here", "test_system": "Gram-negative bacteria, such as Escherichia coli, Pseudomonas aeruginosa, and Salmonella typhimurium", "settings": "Wu 1999", "data": [{"substance": "Bactenecin: Antimicrobial peptide synthesized by neutrophils, used as substitute of the central α-helix in GFP (RLCRIVSYGVIRVCRR; listed as Aequorea victoria)", "values": [{"measurement": "activity against Gram-negative bacteria", "value": "has an activity"}]}]}
